Reference: PMC9002265, “A New Series of Strigolactone Analogs Derived From Cinnamic Acids as Germination Inducers for Root Parasitic Plants” (Frontiers in Plant Science, 2022)
pIC50: −log10 of the molar value. Read-outs that look alike come from different tables or passages of the source.

Legend:
ShHTL6 = biological target: T1, ShHTL6 (Striga hermonthica, UniProt A0A0M4AUV4); test: YLG assay (inhibition of YLG hydrolysis) with recombinant ShHTL6; format: biochemical
T1 sequence (A0A0M4AUV4 1-271): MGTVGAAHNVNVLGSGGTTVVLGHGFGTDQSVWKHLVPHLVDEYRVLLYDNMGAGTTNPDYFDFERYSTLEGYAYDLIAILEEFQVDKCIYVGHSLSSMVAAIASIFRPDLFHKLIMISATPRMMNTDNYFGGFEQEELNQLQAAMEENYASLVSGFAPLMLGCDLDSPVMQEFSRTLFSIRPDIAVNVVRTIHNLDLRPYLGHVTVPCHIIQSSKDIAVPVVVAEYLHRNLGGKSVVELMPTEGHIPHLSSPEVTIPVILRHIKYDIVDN
Method: (§1) The ORF fragment of ShHTL6 and ShHTL7 was synthesized using IDT gBlock service. The PCR amplified ShHTL6 and ShHTL7 fragment was digested with Nco I and EcoR I, and the digested product was introduced into a modified pET28 vector with an N-terminal His8 tag. Escherichia coli BL21(DE3) was used for protein expression. The overnight culture (12 ml) was added to a fresh LB medium (1.2 L) containing kanamycin (50 mg/L) at 37°C. After OD600 reached 0.8, 0.1 mM IPTG was added and the cell was further incubated at 16°C for 21 h. The culture medium was centrifuged at 3700 g and the pellet was stored at −20°C until use. The pellet was resuspended and sonicated in a lysis buffer (50 mM Tris buffer (pH 8.0) containing 500 mM NaCl, 10 mM 2-mercaptoethanol, and 10% glycerol). The supernatant was purified by Ni Sepharose TM 6 Fast Flow (500 μl, Cytiva). After washing with the washing buffer (50 mM Tris buffer (pH 8.0) containing 500 mM NaCl and 20 mM imidazole), The bound protein was eluted with elution buffer (50 mM Tris buffer (pH 8.0) containing 500 mM NaCl and 200 mM imidazole). The eluate was concentrated using VIVASPIN Turbo 15 (Sartorius), and the concentration was adjusted to 5 mg/ml. The purified protein was aliquoted to the appropriate volume, immediately frozen in liquid nitrogen, and stored at −80°C until use.
(§2) After YLG was incubated with recombinant ShHTL6 or ShHTL7 for 1 h, the fluorescence was measured by spectraMax i5 (Molecular Devices) at excitation by 480 nm and detection by 520 nm. IC50 values were calculated using the online tool Quest GraphTM IC50 Calculator (AAT Bioquest, Inc., United States; https://www.aatbio.com/tools/ ic50-calculator).

ShHTL7 [1] = biological target: T2, ShHTL7 (Striga hermonthica, UniProt A0A0M3PNA2); test: YLG assay (inhibition of YLG hydrolysis) with recombinant ShHTL7; format: biochemical
T2 sequence (A0A0M3PNA2 1-271): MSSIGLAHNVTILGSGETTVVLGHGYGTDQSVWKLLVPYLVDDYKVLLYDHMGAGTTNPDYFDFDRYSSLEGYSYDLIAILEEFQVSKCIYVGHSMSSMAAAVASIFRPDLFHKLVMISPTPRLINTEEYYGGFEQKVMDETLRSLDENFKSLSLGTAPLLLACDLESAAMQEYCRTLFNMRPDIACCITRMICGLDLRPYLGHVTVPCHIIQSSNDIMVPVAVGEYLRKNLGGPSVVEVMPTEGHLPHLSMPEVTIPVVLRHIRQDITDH
Method: as §1, §2

ShHTL7 [2] = biological target: T2, ShHTL7; test: Hydrolysis assay with recombinant ShHTL7; format: biochemical; details: 10 μM substrate, 30°C, 60 min
Method: as §1
(§3) Hydrolysis assays were carried out at 30°C for 60 min in 100 μl of a reaction buffer containing 0.13 pmol recombinant ShHTL7 or AtD14, 10 μM of substrate in 50 mM Phosphate-Na buffer (pH 7.0) containing 2% acetone. The enzyme reaction was stopped by addition of 100 μl of acetonitrile containing 1-naphtaleneacetic acid (NAA; 0.5 ng/μl) as an internal standard. After centrifuged at 13,000 rpm for 5 min, each sample was subjected to LC–MS/MS analysis equipped with reverse-phase column (CORTECS UPLC Phenyl 1.6 μm, ϕ2.1 × 75 mm; Waters). The concentration of remaining substrate and reaction product was calculated by using NAA as an internal standard. Detailed information about the analytical condition is described in Supplementary Table 1.

AtD14 = biological target: T3, AtD14 (Arabidopsis thaliana, UniProt Q9SQR3); test: Hydrolysis assay with recombinant AtD14; format: biochemical; details: 10 μM substrate, 30°C, 60 min
T3 construct: The cDNA of AtD14 was introduced into pMALHis vector; MBP; His6; made in house; host or cells: E. coli BL21 (DE3)
T3 sequence (Q9SQR3 1-267): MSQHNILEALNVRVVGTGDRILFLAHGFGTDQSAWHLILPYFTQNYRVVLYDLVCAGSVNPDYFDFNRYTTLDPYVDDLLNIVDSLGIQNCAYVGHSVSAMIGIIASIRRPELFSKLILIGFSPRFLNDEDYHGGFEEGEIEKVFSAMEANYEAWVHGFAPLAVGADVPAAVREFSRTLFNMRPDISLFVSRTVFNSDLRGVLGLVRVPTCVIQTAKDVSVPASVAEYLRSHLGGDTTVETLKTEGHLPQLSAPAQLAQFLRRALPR
Method: The cDNA of AtD14 was introduced into pMALHis vector that has both MBP-tag and His6-tag. The vector was transformed in to E. coli BL21 (DE3) and the cell was precultured in LB medium containing 50 μg/ml ampicillin. Overnight cultures (10 ml) were added to fresh LB medium (1 L) containing 50 μg/ml ampicillin and it was cultured at 37°C. After OD600 reached to 0.8, the cultures were cooled at 16°C for 1 h, and then 0.1 mM IPTG was added. The culture was further incubated at 16°C for 20 h. The culture medium was centrifuged at 3,700 g and the pellet was stored at −20°C until use. The pellet was resuspended and sonicated in lysis buffer (50 mM Tris buffer (pH 8.0) containing 500 mM NaCl, 10 mM 2-mercaptoethanol, and 10% glycerol). The supernatant was purified by Ni Sepharose TM 6 Fast Flow (500 μl, Cytiva) After washing with the washing buffer (50 mM Tris buffer (pH 8.0) containing 500 mM NaCl and 20 mM imidazole), The bound protein was eluted with elution buffer (50 mM Tris buffer (pH 8.0) containing 500 mM NaCl and 200 mM imidazole). The eluate was concentrated using VIVASPIN Turbo 15 (Sartorius), and the concentration was adjusted to 5 mg/ml. The purified protein was aliquoted to the appropriate volume, immediately frozen in liquid nitrogen, and stored at −80°C until use.
as §3

Orobanche minor seeds = test: Germination assay, Orobanche minor seeds; format: in vivo; details: O. minor seeds; result in words
Method: Orobanche minor seeds were washed with 70% EtOH, and then sonicated for 4 min in 1% sodium hypochlorite solution containing 0.2% Tween-20. The seeds were then washed 10 times with sterile water and suspended in 0.1% agar solution. The seeds were loaded onto 5-mm glass fiber filter disks (20–70 seeds/disk) and were conditioned at 23°C for 15 days. Each disk was transferred into a 96-well plate. A 30 μl aliquot of test chemical solution was added to the well. For the germination assay, the chemical solutions were prepared by 1,000 times dilution from each acetone stock solution with water (final acetone concentration was 0.1%). GR24 solution (0.1% acetone) and sterile water (0.1% acetone) was used as positive and negative control, respectively. The 96 well plates were incubated for 5 days at 23°C and the number of total seeds and germinated seeds was counted.

Striga hermonthica seeds = system: Striga hermonthica seeds; parameters: method as in Uraguchi et al., 2018; details: ref Uraguchi et al., 2018; cited from earlier work
[3] = system: Arabidopsis wild type Col-0; test: Growth promoting assay and root phenotypic analysis; format: in vivo; details: 1 μM on agar plate
Method: Sterilized seeds of the Arabidopsis wild type Col-0 were put on the plate containing 1% (w/v) agar-solidified 0.5× Murashige and Skoog (MS) medium, 1% sucrose. Test compounds were dissolved in the medium at 1 μM by 10,000 times dilution from each acetone stock (final concentration of acetone was 0.01% (v/v)). To evaluate the growth promoting effect, these seedlings were cultured horizontally at 22°C for 20 days under LED light (105 μmol/m^2/s) with a 16 h light/8 h dark photoperiod. After the cultivation, flesh weight of shoot was measured. For root phenotypic analysis, these seedlings were cultured verticaly at 22°C for 11 days under LED light (105 μmol/m^2/s) with a 16 h light/8 h dark photoperiod. After the cultivation, root length was measured by using ImageJ software and number of lateral roots was counted by using a microscope.

[4] = Time course monitoring of degradation in hydroponic culture; format: physicochemical; details: 1 μM, within 1 week, pH 5.7, LC-MS/MS
Method: t-CASL1, c-CASL1, PPASL, and GR5 were separately added to 15 ml tubes containing hydroponic culture. The final concentration of the test compounds is 1 μM and acetone was adjusted to 0.01% (v/v). These solutions were incubated under the same conditions as branching assay. After incubation for 0, 5, 24 72, or 168 h, 495 μl of hydroponic culture containing test compounds was collected and 5 μl of NAA solution (10 μM) was added as an internal standard. The solution was extracted with ethyl acetate. The ethyl acetate phase was dried up under the nitrogen gas and dissolved in acetonitrile. These samples were subjected to LC–MS/MS analysis equipped with reverse-phase column (CORTECS UPLC Phenyl 1.6 μm, ϕ2.1 × 75 mm; Waters). Each peak area of test chemicals and internal standard was calculated, and the remaining percentage of teste chemicals was calculated. At the same time, the degradation products of test compounds (CA or PPA) were also analyzed. Detailed information about the analytical condition was described in Supplementary Table 1.

[5] = 1 h incubation, read-out: IC50 in YLG assay
[6] = read-out: IC50 in YLG assay, 1 h incubation

| Compound | pIC50 (ShHTL7 [1]; [5]) | also measured |
| --- | --- | --- |
| CC1=C[C@H](O/C=C2/C(=O)O[C@@H]3c4ccccc4C[C@H]23)OC1=O (relative stereo) [GR24, reference compound] | 6.77 | pIC50 (ShHTL6; ShHTL6, YLG hydrolysis, 1 h incubation, read-out: IC50 in YLG assay): 5.63 |
| CC1=CC(OC(=O)CCc2ccccc2)OC1=O (stereo not shown) [PPASL] | 5.84 | pIC50 (ShHTL6): 5.65; hydrolysis by HTL7 (ShHTL7 [2]): can hydrolyze; hydrolysis by AtD14 (AtD14): can hydrolyze; germination-inducing activity compared with c-CASL1 or t-CASL1 (Orobanche minor seeds): much weaker activity |
| CCCCOc1ccc(S(=O)(=O)N2CCN(C(=O)OC3C=C(C)C(=O)O3)CC2)cc1 (stereo not shown) [SPL7, sphynolactone-7] | – | concentration inducing S. hermonthica germination (Striga hermonthica seeds): fM concentrations |
| CC1=CC(OC(=O)/C=C\c2ccc(C)cc2)OC1=O (stereo not shown) [c-CASL2] | 6.17 | – |
| CC1=CC(OC(=O)/C=C\c2ccc(O)cc2)OC1=O (stereo not shown) [c-CASL3] | 5.46 | – |
| COc1ccc(/C=C\C(=O)OC2C=C(C)C(=O)O2)cc1 (stereo not shown) [c-CASL4] | 6.18 | – |
| CCOc1ccc(/C=C\C(=O)OC2C=C(C)C(=O)O2)cc1 (stereo not shown) [c-CASL5] | – | pIC50 (ShHTL7 [1]; [6]): 6.51 |
| CC1=CC(OC(=O)/C=C\c2ccc([N+](=O)[O-])cc2)OC1=O (stereo not shown) [c-CASL6] | 6.60 | – |
| CC1=CC(OC(=O)/C=C\c2ccc(F)cc2)OC1=O (stereo not shown) [c-CASL7] | 5.94 | – |
| CC1=CC(OC(=O)/C=C\c2ccc(Br)cc2)OC1=O (stereo not shown) [c-CASL8] | 6.44 | – |
| CC1=CC(OC(=O)/C=C\c2ccc(Cl)cc2)OC1=O (stereo not shown) [c-CASL9] | 6.47 | – |
| CC1=CC(OC(=O)/C=C\c2ccc(C(F)(F)F)cc2)OC1=O (stereo not shown) [c-CASL10] | 6.66 | – |
| CC1=CC(OC(=O)/C=C2/CCc3ccccc32)OC1=O (stereo not shown) [c-indCASL] | 5.70 | – |
| CC1=CC(OC(=O)/C=C2/CCCc3ccccc32)OC1=O (stereo not shown) [c-tetCASL] | 5.34 | – |
| O=C(O)/C=C\c1ccccc1 [cis-CA, cis-cinnamic acid, reference compound] | – | lateral root density ([3]; 11 days): increased; primary root length ([3]; 11 days): inhibited; shoot fresh weight ([3]; 20 days): increase |
| CC1=CC(OC(=O)/C=C/c2ccccc2)OC1=O (stereo not shown) [t-CASL1] | 5.69 | pIC50 (ShHTL6): 5.73; hydrolysis by HTL7 (ShHTL7 [2]): can hydrolyze; loss (non-enzymatic degradation) in hydroponic culture medium [4]: ~40%; hydrolysis by AtD14 (AtD14): can hydrolyze |
| CC1=CC(OC(=O)/C=C/c2ccc(C)cc2)OC1=O (stereo not shown) [t-CASL2] | 5.85 | – |
| CC1=CC(OC(=O)/C=C/c2ccc(O)cc2)OC1=O (stereo not shown) [t-CASL3] | < 5.00 | – |
| COc1ccc(/C=C/C(=O)OC2C=C(C)C(=O)O2)cc1 (stereo not shown) [t-CASL4] | 5.66 | – |
| CCOc1ccc(/C=C/C(=O)OC2C=C(C)C(=O)O2)cc1 (stereo not shown) [t-CASL5] | – | pIC50 (ShHTL7 [1]; [6]): 5.40 |
| CC1=CC(OC(=O)/C=C/c2ccc([N+](=O)[O-])cc2)OC1=O (stereo not shown) [t-CASL6] | 6.15 | – |
| CC1=CC(OC(=O)/C=C/c2ccc(F)cc2)OC1=O (stereo not shown) [t-CASL7] | 5.81 | – |
| CC1=CC(OC(=O)/C=C/c2ccc(Br)cc2)OC1=O (stereo not shown) [t-CASL8] | 6.15 | – |
| CC1=CC(OC(=O)/C=C/c2ccc(Cl)cc2)OC1=O (stereo not shown) [t-CASL9] | 6.08 | – |
| CC1=CC(OC(=O)/C=C/c2ccc(C(F)(F)F)cc2)OC1=O (stereo not shown) [t-CASL10] | 6.47 | – |
| CC1=CC(OC(=O)/C=C2\CCc3ccccc32)OC1=O (stereo not shown) [t-indCASL] | 5.51 | germination-inducing activity compared with the corresponding non-fixed (unfixed) analog (Orobanche minor seeds): much stronger activity |
| CC1=CC(OC(=O)/C=C2\CCCc3ccccc32)OC1=O (stereo not shown) [t-tetCASL] | 5.41 | germination-inducing activity compared with the corresponding non-fixed (unfixed) analog (Orobanche minor seeds): much stronger activity |
